The nature of test [1]: Agonistic activity against Nicotinic acetylcholine receptor alpha-7 - 5-hydroxytryptamine 3 receptor chimera. The test is classed as functional.
Test [2] can be described thus: Antagonistic activity against 5-hydroxytryptamine 3 receptor. The test is classed as functional.
Test [3] concerns the target Neuronal acetylcholine receptor; alpha3/beta4 (Homo sapiens, UniProt P30926+P32297). Briefly: Antagonistic activity against Nicotinic acetylcholine receptor alpha3-beta4. The test is classed as functional.
Test [4] concerns the target T1, Serotonin 3 (5-HT3) receptor (Rattus norvegicus, UniProt P35563+Q9JJ16).
T1 sequence (P35563 whole entry): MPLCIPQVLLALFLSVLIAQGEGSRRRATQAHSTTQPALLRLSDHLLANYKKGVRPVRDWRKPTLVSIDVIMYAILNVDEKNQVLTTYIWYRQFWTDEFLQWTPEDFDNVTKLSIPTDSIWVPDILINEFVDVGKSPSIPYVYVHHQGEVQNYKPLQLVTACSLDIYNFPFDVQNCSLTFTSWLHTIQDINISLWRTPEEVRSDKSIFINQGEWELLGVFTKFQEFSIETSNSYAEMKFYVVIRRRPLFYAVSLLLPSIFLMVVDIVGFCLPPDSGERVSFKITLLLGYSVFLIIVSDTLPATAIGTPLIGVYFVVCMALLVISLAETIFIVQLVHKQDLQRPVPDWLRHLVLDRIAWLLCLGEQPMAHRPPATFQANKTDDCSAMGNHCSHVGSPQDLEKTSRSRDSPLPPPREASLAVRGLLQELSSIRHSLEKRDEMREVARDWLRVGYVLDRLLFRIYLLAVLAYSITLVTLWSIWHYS
T1 sequence (Q9JJ16 whole entry): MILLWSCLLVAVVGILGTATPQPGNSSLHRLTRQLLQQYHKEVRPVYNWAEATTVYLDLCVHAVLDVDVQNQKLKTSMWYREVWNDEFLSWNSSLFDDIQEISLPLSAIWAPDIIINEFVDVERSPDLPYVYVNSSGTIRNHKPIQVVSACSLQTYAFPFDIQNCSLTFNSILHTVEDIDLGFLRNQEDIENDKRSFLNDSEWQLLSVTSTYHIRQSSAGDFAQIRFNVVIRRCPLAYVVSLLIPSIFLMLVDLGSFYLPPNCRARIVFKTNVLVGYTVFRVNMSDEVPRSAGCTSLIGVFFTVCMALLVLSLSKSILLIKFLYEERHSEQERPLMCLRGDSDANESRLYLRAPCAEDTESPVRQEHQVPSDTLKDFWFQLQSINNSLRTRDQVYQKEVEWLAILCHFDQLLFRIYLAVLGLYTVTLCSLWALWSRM
Briefly: Inhibition of [3H]GR-65630 binding to 5-hydroxytryptamine 3 receptor from rat brain homogenates.

Test [5] concerns the target Acetylcholine receptor; alpha1/beta1/delta/gamma (Homo sapiens, UniProt P02708+P07510+P11230+Q07001). Briefly: Antagonistic activity against Nicotinic acetylcholine receptor alpha-1-beta-1-delta-gamma. The test is classed as functional.
The target in test [6] is T1, Serotonin 3 (5-HT3) receptor. Description: Functional antagonism of rat 5-hydroxytryptamine 3 receptor in cell-based FLIPR assay.
Test [7] addresses Neuronal acetylcholine receptor subunit alpha-7 (Rattus norvegicus, UniProt Q05941). Description: Inhibition of methyllycaconitine (MLA) binding to Nicotinic acetylcholine receptor alpha-7 in rat brain homogenates. The test is classed as tissue-based.
Test [8] has as its target Neuronal acetylcholine receptor; alpha4/beta2 (Rattus norvegicus) (UniProt P09483+P12390). Description: Inhibition of [3H]cytisine binding to Nicotinic acetylcholine receptor alpha4-beta2 from rat brain homogenates at 1 uM.

Bounds are passed on as bounds.

Chain of Acetylcholine receptor; alpha1/beta1/delta/gamma (P02708 whole entry): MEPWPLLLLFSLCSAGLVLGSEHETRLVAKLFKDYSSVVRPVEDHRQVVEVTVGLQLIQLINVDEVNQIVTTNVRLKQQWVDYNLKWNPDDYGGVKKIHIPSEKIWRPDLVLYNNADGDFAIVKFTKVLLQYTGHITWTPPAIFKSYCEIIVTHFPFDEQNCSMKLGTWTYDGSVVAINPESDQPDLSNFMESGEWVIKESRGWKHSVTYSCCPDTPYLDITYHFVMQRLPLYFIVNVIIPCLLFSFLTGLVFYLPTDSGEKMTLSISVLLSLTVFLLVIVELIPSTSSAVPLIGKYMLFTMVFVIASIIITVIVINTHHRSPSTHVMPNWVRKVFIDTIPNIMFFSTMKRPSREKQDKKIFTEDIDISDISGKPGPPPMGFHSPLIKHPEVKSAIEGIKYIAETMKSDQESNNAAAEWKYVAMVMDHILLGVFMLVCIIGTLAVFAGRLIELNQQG
Chain of Acetylcholine receptor; alpha1/beta1/delta/gamma (P07510 whole entry): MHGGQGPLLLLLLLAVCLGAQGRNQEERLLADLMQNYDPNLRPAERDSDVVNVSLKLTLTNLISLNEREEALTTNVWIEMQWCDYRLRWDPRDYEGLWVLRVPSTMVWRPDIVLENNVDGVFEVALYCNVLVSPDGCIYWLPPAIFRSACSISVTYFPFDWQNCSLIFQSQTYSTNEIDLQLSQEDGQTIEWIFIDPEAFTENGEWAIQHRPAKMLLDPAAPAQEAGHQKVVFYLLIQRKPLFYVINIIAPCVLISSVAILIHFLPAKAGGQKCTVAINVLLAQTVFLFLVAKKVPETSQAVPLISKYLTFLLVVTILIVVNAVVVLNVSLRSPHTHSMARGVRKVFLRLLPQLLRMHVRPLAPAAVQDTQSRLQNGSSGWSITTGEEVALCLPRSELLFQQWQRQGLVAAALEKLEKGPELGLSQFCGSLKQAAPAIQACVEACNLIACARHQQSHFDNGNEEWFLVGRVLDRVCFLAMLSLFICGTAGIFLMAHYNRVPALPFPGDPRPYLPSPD
Chain of Acetylcholine receptor; alpha1/beta1/delta/gamma (P11230 whole entry): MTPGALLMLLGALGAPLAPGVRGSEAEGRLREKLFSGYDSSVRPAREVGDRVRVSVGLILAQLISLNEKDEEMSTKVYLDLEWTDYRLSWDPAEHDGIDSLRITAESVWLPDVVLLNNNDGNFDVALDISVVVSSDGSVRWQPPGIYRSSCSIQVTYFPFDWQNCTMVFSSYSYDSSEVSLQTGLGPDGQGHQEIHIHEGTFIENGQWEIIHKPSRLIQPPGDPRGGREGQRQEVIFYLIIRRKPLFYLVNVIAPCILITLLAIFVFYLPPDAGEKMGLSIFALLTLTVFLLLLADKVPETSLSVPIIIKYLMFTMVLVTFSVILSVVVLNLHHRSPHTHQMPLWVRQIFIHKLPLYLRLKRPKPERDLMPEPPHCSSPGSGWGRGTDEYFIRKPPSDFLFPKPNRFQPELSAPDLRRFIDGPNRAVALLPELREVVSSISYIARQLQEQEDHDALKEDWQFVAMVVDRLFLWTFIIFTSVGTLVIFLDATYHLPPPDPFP
Chain of Acetylcholine receptor; alpha1/beta1/delta/gamma (Q07001 whole entry): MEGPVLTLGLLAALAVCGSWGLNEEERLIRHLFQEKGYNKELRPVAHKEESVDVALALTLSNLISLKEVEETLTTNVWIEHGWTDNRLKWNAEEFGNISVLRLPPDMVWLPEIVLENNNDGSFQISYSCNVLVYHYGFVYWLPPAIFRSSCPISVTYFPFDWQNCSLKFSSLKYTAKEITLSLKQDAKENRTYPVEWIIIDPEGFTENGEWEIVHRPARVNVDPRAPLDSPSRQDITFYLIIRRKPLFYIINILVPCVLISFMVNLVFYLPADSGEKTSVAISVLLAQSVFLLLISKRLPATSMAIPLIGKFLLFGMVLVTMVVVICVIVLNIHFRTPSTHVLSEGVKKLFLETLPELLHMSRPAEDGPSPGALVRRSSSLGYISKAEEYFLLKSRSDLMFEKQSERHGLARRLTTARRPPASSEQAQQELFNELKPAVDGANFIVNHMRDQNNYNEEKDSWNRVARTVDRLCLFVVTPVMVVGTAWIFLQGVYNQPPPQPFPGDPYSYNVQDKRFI
Chain of Neuronal acetylcholine receptor; alpha3/beta4 (P30926 whole entry): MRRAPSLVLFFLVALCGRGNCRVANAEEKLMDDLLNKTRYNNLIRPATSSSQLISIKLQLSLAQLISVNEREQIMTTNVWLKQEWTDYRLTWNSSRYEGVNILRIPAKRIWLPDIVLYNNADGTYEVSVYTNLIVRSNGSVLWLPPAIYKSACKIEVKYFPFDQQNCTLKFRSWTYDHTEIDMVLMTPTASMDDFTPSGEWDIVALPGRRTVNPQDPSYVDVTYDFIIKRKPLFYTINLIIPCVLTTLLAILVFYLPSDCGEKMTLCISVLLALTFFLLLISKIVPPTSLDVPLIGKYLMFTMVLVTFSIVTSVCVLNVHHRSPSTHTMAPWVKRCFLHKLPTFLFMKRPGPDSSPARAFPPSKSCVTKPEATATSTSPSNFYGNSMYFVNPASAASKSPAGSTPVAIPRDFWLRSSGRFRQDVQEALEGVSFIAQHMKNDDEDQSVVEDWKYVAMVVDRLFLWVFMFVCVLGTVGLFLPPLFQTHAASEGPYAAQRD
Chain of Neuronal acetylcholine receptor; alpha3/beta4 (P32297 whole entry): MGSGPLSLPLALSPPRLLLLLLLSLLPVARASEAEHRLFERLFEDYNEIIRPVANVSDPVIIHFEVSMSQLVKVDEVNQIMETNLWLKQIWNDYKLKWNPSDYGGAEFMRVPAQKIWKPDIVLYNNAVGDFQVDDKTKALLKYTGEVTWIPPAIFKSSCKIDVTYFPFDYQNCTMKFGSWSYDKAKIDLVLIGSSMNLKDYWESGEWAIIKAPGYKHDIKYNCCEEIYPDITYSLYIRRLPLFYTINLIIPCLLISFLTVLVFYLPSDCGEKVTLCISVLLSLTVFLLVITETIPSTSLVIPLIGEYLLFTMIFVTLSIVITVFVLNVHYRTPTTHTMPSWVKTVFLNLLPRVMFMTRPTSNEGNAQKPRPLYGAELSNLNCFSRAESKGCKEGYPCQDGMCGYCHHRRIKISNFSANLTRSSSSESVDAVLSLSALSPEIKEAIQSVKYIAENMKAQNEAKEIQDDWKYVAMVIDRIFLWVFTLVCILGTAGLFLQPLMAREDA
Chain of Neuronal acetylcholine receptor subunit alpha-7 (Q05941 whole entry): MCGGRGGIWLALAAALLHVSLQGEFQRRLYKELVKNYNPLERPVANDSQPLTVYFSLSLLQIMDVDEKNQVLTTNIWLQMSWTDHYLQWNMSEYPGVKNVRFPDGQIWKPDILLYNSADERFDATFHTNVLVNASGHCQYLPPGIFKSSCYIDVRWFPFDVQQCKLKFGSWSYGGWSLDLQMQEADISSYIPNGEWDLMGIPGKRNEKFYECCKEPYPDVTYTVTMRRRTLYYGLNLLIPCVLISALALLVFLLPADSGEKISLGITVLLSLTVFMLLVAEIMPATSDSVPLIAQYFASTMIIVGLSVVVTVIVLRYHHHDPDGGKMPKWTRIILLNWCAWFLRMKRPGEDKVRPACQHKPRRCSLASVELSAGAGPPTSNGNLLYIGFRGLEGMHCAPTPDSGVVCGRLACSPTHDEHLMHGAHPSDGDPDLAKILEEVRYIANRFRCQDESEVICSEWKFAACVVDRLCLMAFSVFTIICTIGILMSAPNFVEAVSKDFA

One may read the EC50 as the concentration needed to bring the measured effect to its halfway point. High values mean a less potent agent, low ones a more potent agent. In the case of `CCc1ccc(C(=O)N[C@H]2CN3CCC2CC3)cc1`, in test [1], a half-maximal effect (EC50) was put at 3760 nM.

For the compound `O=C(N[C@H]1CN2CCC1CC2)c1ccccc1F`, it took 16700 nM to reach a half-maximal effect in test [1] (EC50).

Compound `O=C(N[C@H]1CN2CCC1CC2)c1ccc(I)cc1` displayed an EC50 in test [1] of 494 nM.

As to `O=C(N[C@H]1CN2CCC1CC2)c1cccc(Cl)c1`, the EC50 in test [1] came out at 1500 nM. This EC50 is about 3-fold higher than that of the compound before.

Take `CSc1ccc(C(=O)N[C@H]2CN3CCC2CC3)cc1`: in test [1], the midpoint of the response, the EC50, lay at 164 nM.

For orientation: Ki means the dissociation constant of the complex between target and ligand, obtained from inhibition or displacement. Low values mean tighter binding, high ones weaker binding. Compound `O=C(N[C@H]1CN2CCC1CC2)c1cc(Cl)cc2c1OCC2` yielded a Ki in test [2] of 1 nM.

Compound `O=C(N[C@H]1CN2CCC1CC2)c1ccc(Cl)cc1` [PNU-282987] yielded an EC50 in test [1] of 128 nM.

On to `O=C(N[C@H]1CN2CCC1CC2)c1ccc(SCc2ccccc2)cc1`, for which the EC50 in test [1] worked out at 100000 nM. Compared with the last compound, the EC50 is about 780-fold higher.

For the compound `O=C(N[C@H]1CN2CCC1CC2)c1ccc([N+](=O)[O-])cc1`, it took 1000 nM to reach a half-maximal effect in test [1] (EC50).

Compound `O=C(N[C@H]1CN2CCC1CC2)c1ccc(Br)cc1` showed an EC50 in test [1] of 206 nM.

`O=C(N[C@H]1CN2CCC1CC2)c1ccccc1` had an EC50 in test [1] of 1900 nM.

In the case of `CC(=O)Nc1ccc(C(=O)N[C@H]2CN3CCC2CC3)cc1`, the EC50 in test [1] is over 100000 nM.

Compound `COc1cccc(C(=O)N[C@H]2CN3CCC2CC3)c1` had an EC50 in test [1] of 2200 nM.

As a reminder, the IC50 is the concentration that gives 50% inhibition. Low values mean higher potency, high ones lower potency. As to `O=C(N[C@H]1CN2CCC1CC2)c1ccc(Cl)cc1` [listing 1 of 2 here], the values for the IC50 in test [3], in test [5] and in test [6] were at least 60000 nM, at least 60000 nM and 4540 nM, respectively. For the same compound, the Ki in test [4] turned out to be 1660 nM; in test [7], 27 nM. Further, in test [1], the EC50 is 154 nM.

With `O=C(N[C@H]1CN2CCC1CC2)c1ccc(C(F)(F)F)cc1`, in test [1], the EC50 is over 100000 nM.

Compound `COc1ccccc1C(=O)N[C@H]1CN2CCC1CC2` registered an EC50 in test [1] of over 100000 nM.

Broadly, the inhibition is the change of the read-out against control, counted positive when it falls. In turn, `O=C(N[C@H]1CN2CCC1CC2)c1ccc(Cl)cc1` [listing 2 of 2 here] displayed an inhibition in test [8] of 14%.

As to `CC(C)c1ccc(C(=O)N[C@H]2CN3CCC2CC3)cc1`, the EC50 in test [1] is over 100000 nM.

The compound `O=C(N[C@H]1CN2CCC1CC2)c1cccc(F)c1` came in with an EC50 in test [1] of 3300 nM.

`COc1ccc(C(=O)N[C@H]2CN3CCC2CC3)cc1`: in test [1], the EC50 came out at 360 nM.

`CC(=O)c1ccc(C(=O)N[C@H]2CN3CCC2CC3)cc1` gave an EC50 in test [1] of 30000 nM.

On to `CS(=O)(=O)c1ccc(C(=O)N[C@H]2CN3CCC2CC3)cc1`, for which the EC50 in test [1] was over 100000 nM.

The compound `O=C(N[C@H]1CN2CCC1CC2)c1ccc(F)cc1` came in with an EC50 in test [1] of 506 nM.

In turn, `O=C(N[C@H]1CN2CCC1CC2)c1ccc(OCc2ccccc2)cc1` registered an EC50 in test [1] of over 100000 nM.

On to `CCCc1ccc(C(=O)N[C@H]2CN3CCC2CC3)cc1`, for which the EC50 in test [1] is over 100000 nM.

Compound `CN(C)c1ccc(C(=O)N[C@H]2CN3CCC2CC3)cc1` registered an EC50 in test [1] of 30000 nM. This counts as double-digit micromolar.

In turn, `Cc1ccc(C(=O)N[C@H]2CN3CCC2CC3)cc1` yielded an EC50 in test [1] of 324 nM.

Values taken from ChEMBL document CHEMBL1142678, “Discovery and structure-activity relationship of quinuclidine benzamides as agonists of alpha7 nicotinic acetylcholine receptors” (J Med Chem, 2005).
